Source: patent US7374920B2, “Ginkgo biloba levopimaradiene synthase” (priority 2001, dated 2008)
Entries after “also recorded” stand apart in the source; their conditions may differ.

Key:
[1] = test system: G. biloba seedlings, plants, and trees; conditions: cited from earlier work; for effect on diterpenoid content: cycloartenol synthase inhibitors (Huh, et al., 1993)
[2] = biological target: T1, Levopimaradiene synthase (Ginkgo biloba, UniProt Q947C4); test: levopimaradiene synthase activity towards geranyl diphosphate and farnesyl diphosphate; type: biochemical; conditions: E. coli expression, 200 μM substrate, overnight at 32° C., GC or GC/MS
T1 construct: thioredoxin (from pET32c(+)); made in house; host or cells: E. coli BL21(DE3), soluble fraction of the lysate
T1 sequence (Q947C4 60-873): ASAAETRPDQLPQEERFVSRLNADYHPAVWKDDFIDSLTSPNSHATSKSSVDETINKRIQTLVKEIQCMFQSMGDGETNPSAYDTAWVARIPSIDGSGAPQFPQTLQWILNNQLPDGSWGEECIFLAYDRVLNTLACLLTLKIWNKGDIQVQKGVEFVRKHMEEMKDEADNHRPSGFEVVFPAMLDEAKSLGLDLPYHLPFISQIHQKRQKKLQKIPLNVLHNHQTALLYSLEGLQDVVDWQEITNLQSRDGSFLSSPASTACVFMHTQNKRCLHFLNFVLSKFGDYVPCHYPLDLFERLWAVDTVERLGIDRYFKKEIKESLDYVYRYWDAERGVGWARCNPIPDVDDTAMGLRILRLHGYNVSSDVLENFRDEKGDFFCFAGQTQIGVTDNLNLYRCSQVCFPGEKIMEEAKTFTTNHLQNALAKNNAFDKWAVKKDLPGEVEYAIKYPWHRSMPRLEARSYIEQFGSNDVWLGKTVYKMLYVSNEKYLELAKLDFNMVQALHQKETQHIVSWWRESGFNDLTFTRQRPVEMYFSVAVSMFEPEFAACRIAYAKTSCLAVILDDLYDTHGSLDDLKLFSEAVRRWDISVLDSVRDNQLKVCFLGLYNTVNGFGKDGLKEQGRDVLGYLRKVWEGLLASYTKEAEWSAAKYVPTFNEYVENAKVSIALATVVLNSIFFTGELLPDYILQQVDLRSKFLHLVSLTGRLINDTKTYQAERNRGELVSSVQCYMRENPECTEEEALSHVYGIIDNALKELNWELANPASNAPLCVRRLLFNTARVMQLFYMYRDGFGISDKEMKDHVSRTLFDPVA
Experimental: Levopimaradiene synthase was also tested for activity towards 200 μM geranyl diphosphate and farnesyl diphosphate. Cell cultures were induced and lysed as noted above. The soluble fraction of the lysate was incubated overnight at 32° C. with 200 μM substrate in 30 mM HEPES, pH 7.2, 5 mM DTT, 5% glycerol, 2 mM MgCl2 and 500 μM MnCl2, and overlaid with hexane (1 mL).
(§1) All in vitro reactions were extracted 3× with hexane and dried over MgSO4. The reaction was further extracted twice with diethyl ether and dried over MgSO4. Thereafter, the crude lysate was suspended in 100 mM Tris, pH 8.0 containing 2.9 units/mg apyrase (a dephosphorylating agent) and 10 units/μL calf intestinal alkaline phosphatase, incubated at 30° C. for 3 hours, and extracted with diethyl ether as noted above (Croteau and Cane, 1985). The crude reaction mixtures were eluted over SiO2, concentrated, and analyzed by GC and GC/MS.
Gas chromatography spectra were obtained on a Hewlett Packard 6890 Series GC System equipped with an Rtx-5 capillary column (Restek, 30 m×0.25 mm i.d., 0.10 μm df). The following separation conditions and temperature program were employed: injector port 250° C., FID 250° C., split ratio 39:1, helium flow 20 cm/s (0.6 mL/min), 150° C. hold 5 min, increase to 250° C. (5° C./min), hold 5 min. […]

[3] = test system: EHY18 yeast cells; test: in vivo expression of GbLS constructs in yeast strain EHY18 that accumulates GGDP, GC quantitation of products; type: cell-based; conditions: GC, GC/MS
Experimental: The yeast strain of the copending application employed was EHY18 (Hart, E., 2001) which was further transformed with multiple-copy yeast expression vectors comprising an isolated and purified nucleic acid sequence of GbLS or derivatives thereof, which are described herein under control of the GAL1 inducible promoter. Yeast cells were grown to saturation in 5 mL ScD-Leu-Ura at 30° C. Cells were harvested (1300×g, 2 min, 25° C.) and resuspended in 500 μL sterile Milli-Q H2O (2×). The washed cells were resuspended in 5 mL sterile Milli-Q H2O. An aliquot of the culture (5 μL) was added to a 25 mL Corex tube containing pre-prepared 2× resin and 5 mL ScG-Leu-Ura (4% galactose) and shaken at 30° C. for 6 days. Resin was collected by filtration through a Kontes chromatography column (1.7 cm diameter) and rinsed with dI H2O until eluent was clear. The resin was incubated in 2 mL ethanol for several minutes, eluted, and repeated 2×. The combined eluents were dissolved in approximately 3 mL dI H2O and extracted (3×) with 3 mL hexane. The combined extracts were concentrated under a stream of nitrogen. GC analysis (quantitation extrapolated from 0.2 mg/mL longifolene external standard) indicated the following product profile (obtained from triplicate measurement of three cultures): 0.61±0.20 mg/L levopimaradiene, 0.04±0.01 mg/L abietadiene, 0.15±0.05 mg/L abietatriene, 0.16±0.13 mg/L (+)-copalol, and 1.79±0.90 mg/L geranylgeraniol. GC/MS fragmentation confirmed the identity of each compound.
A large scale culture (1-L) was prepared by growing the yeast cells to saturation in 5 mL ScD-Leu-Ura at 30° C. Cells were harvested (1300×g, 2 min, 25° C.) and resuspended in 500 μL sterile Milli-Q H2O (2×). The washed cells were resuspended in 5 mL sterile Milli-Q H2O. An aliquot of the culture (1 mL) was added to a 2 L flask containing 1-L ScG-Leu-Ura (4% galactose) and 88.27 g resin in 120 mL Milli-Q H2O (pre-prepared). The resin was eluted with ethanol (3×100 mL with 20 min incubation periods), which was subsequently extracted (6×) with hexane. The combined extracts were dried over magnesium sulfate, filtered, and concentrated under reduced pressure. GC analysis (quantitation extrapolated from 0.2 mg/mL longifolene external standard) indicated the following product profile (obtained from triplicate measurement): 0.29±0.04 mg/L levopimaradiene, 0.04±0.02 mg/L abietadiene, 0.13±0.04 mg/L abietatriene, 0.11±0.02 mg/L (+)-copalol, and 0.56±0.03 mg/L geranylgeraniol. GC/MS analyses confirmed the production of the above noted diterpenes, which included hydrocarbons and an alcohol.
Further optimization studies employed the Ser61 construct. Factors influencing diterpene production included induction period and concentration of galactose and resin in the inducing medium.

[4] = in vitro enzymatic assay of levopimaradiene synthase constructs expressed in E. coli BL21(DE3); type: biochemical, Escherichia coli; conditions: E. coli BL21(DE3), soluble lysate fraction, 20 μM GGDP, overnight at 32° C., GC and GC/MS
Experimental: The desired plasmids were prepared by ligating the mutated gene insert into the similarly digested vectors pET32c(+) (Novagen; Madison, Wis.) and pRS426GAL (Hua, 2000), a multiple copy yeast expression vector. These plasmids was expressed in E. coli BL21(DE3) (Novagen; Madison, Wis.). E. coli cells were grown in Luria-Bertani medium supplemented with 100 μg/mL ampicillin at 37° C. with shaking to OD600 ˜0.6. The following parameters were tested: isopropyl 1-thio-β-D-galactopyranoside (IPTG) concentration (50, 100, 250, 500, and 1000 μM); and temperature and time (20° C. for 2, 3, 4, 6, 21 hours, 22° C. for 6, 8, 16, 19, 22, 45 hours, and 30° C. for 3, 6 hours). The following assay conditions were tested to obtain maximum diterpene product yield: 30 mM HEPES (N-2-hydroxyethylpiperazine-N′-[…]), pH 6.9, 7.2, 7.6, 8.0; 30 mM Tris (tris(hydroxymethyl)aminomethane hydrochloride), pH 7.4, 7.8, 8.2; 1, 5, 10% glycerol; 1, 3, 5, 10, 20 mM DTT (dithiothreitol); 20 mM β-mercaptoethanol; 2, 5, 8% Triton X-100; 5% Tween 80; 0, 2, 7.5, 20, 50 mM MgCl2; 0, 30, 500, 1000 μM MnCl2; 2, 10, 13.3, 20, 40, 80, 200 μM GGDP; and 23° C. and 32° C. assay temperatures.
Optimal soluble protein production and diterpene yield were obtained with the following conditions. Cell cultures were induced with 1 mM IPTG at 20° C. with shaking for 6 hours and lysed by sonication in 30 mM HEPES, pH 7.2, 5 mM DTT, and 5% glycerol. The soluble fraction of the lysate (100 mg/mL) was incubated with 20 μM GGDP in 30 mM HEPES, pH 7.2, 5 mM DTT, 5% glycerol, 2 mM MgCl2, and 500 μM MnCl2 overnight at 32° C.
as §1
(§2) Gas chromatography spectra were obtained on a Hewlett Packard 6890 Series GC System equipped with an Rtx-5 capillary column (Restek, 30 m×0.25 mm i.d., 0.10 μm df). The following separation conditions and temperature program were employed: injector port 250° C., FID 250° C., split ratio 39:1, helium flow 20 cm/s (0.6 mL/min), 150° C. hold 5 min, increase to 250° C. (5° C./min), hold 5 min. GC/MS spectra were obtained on a Hewlett-Packard 5890A instrument with a 30-m DB-5 ms column (J&W Scientific Inc., 0.25 mm i.d., 0.10 μm df). The following separation conditions and temperature program were employed: injector port 280° C., transfer lines: 280° C., helium flow at 30 cm/s (1 mL/min) with splitless injection at 150° C. hold 3 min, increase to 250° C. (5° C./min), hold 5 min. Mass spectra (m/z 50 to 500) were obtained on a VG ZAB-HF reverse-geometry double-focusing instrument at 70 eV with an electron-impact ion source (200° C.). Accelerating voltage was set to 8 kV and the resolution was 1000 (10% valley).
The skilled artisan recognizes that lysis and assay conditions should be optimized. Examples of parameters that can be adjusted to optimize conditions include altering buffer, pH, reductant, reductant concentration, metal cofactors, cofactor concentrations, glycerol concentrations, substrate concentrations, and assay temperatures. […] Maximum soluble protein production and diterpene yield were obtained with the following conditions. Cell cultures were induced with 1 mM IPTG at 20° C. with shaking for 6 hours and lysed by sonication in 30 mM HEPES, pH 7.2, 5 mM DTT, and 5% glycerol. The soluble fraction of the lysate (100 mg/1 mL) was incubated with 20 μM GGDP in 30 mM HEPES, pH 7.2, 5 mM DTT, 5% glycerol, 2 mM MgCl2, and 500 μM MnCl2 overnight at 32° C. […]

[5] = in vitro assay of levopimaradiene synthase constructs expressed in wild-type S. cerevisiae JBY575; type: biochemical, Saccharomyces cerevisiae; conditions: wild-type S. cerevisiae JBY575, galactose 48 hours, lysate with GGDP
Experimental: Expression in S. cerevisiae JBY575, which represents wild-type yeast, was observed. JBY575 cells transformed with pRS426GAL inserted with the putative levopimaradiene synthase were grown in synthetic complete medium lacking uracil and supplemented with 2% glucose and 1.5% agar at 30° C. to saturation and induced with galactose for 48 hours. Cells were harvested, resuspended in lysis buffer, and mixed by vortexing over glass beads. The lysate was assayed with 60 μM GGDP in the presence and absence of 0.2% and 5% Triton X-100.
as §1, §2
The skilled artisan recognizes that lysis and assay conditions should be optimized. Examples of parameters that can be adjusted to optimize conditions include altering buffer, pH, reductant, reductant concentration, metal cofactors, cofactor concentrations, glycerol concentrations, substrate concentrations, and assay temperatures. […] Maximum soluble protein production and diterpene yield were obtained with the following conditions. Cell cultures were induced with 1 mM IPTG at 20° C. with shaking for 6 hours and lysed by sonication in 30 mM HEPES, pH 7.2, 5 mM DTT, and 5% glycerol. The soluble fraction of the lysate (100 mg/1 mL) was incubated with 20 μM GGDP in 30 mM HEPES, pH 7.2, 5 mM DTT, 5% glycerol, 2 mM MgCl2, and 500 μM MnCl2 overnight at 32° C. Yeast expression was induced with galactose at 30° C. for 48 hours and the cells were lysed and assayed according to the conditions noted.

Cc1cc(OC(=O)N2CCCCC2)c(C(C)C)cc1[N+](C)(C)C.[Cl-] [AMO-1618]
effect on diterpenoid content [1]: Variable results

COc1ccc(C(O)(c2cncnc2)C2CC2)cc1 (stereo not shown) [ancymidol]
effect on diterpenoid content [1]: Variable results

fluridone
increase in ginkgolides ([1]; application to G. biloba (Huh, et al., 1993)): up to 78%

CC(C)=CCC/C(C)=C/COP(=O)(O)OP(=O)(O)O [geranyl diphosphate]
terpene formation from alternative substrate [2]: did not produce any identifiable terpenes

B1: Phe^129: Ginkgo biloba levopimaradiene synthase truncated at Cys^127-Met^128, referred to as Phe^129; SEQ.ID.NO:39 (protein, listed as Ginkgo biloba)
chain: MFQSMGDGETNPSAYDTAWVARIPSIDGSGAPQFPQTLQWILNNQLPDGSWGEECIFLAYDRVLNTLACLLTLKIWNKGDIQVQKGVEFVRKHMEEMKDEADNHRPSGFEVVFPAMLDEAKSLGLDLPYHLPFISQIHQKRQKKLQKIPLNVLHNHQTALLYSLEGLQDVVDWQEITNLQSRDGSFLSSPASTACVFMHTQNKRCLHFLNFVLSKFGDYVPCHYPLDLFERLWAVDTVERLGIDRYFKKEIKESLDYVYRYWDAERGVGWARCNPIPDVDDTAMGLRILRLHGYNVSSDVLENFRDEKGDFFCFAGQTQIGVTDNLNLYRCSQVCFPGEKIMEEAKTFTTNHLQNALAKNNAFDKWAVKKDLPGEVEYAIKYPWHRSMPRLEARSYIEQFGSNDVWLGKTVYKMLYVSNEKYLELAKLDFNMVQALHQKETQHIVSWWRESGFNDLTFTRQRPVEMYFSVAVSMFEPEFAACRIAYAKTSCLAVILDDLYDTHGSLDDLKLFSEAVRRWDISVLDSVRDNQLKVCFLGLYNTVNGFGKDGLKEQGRDVLGYLRKVWEGLLASYTKEAEWSAAKYVPTFNEYVENAKVSIALATVVLNSIFFTGELLPDYILQQVDLRSKFLHLVSLTGRLINDTKTYQAERNRGELVSSVQCYMRENPECTEEEALSHVYGIIDNALKELNWELANPASNAPLCVRRLLFNTARVMQLFYMYRDGFGISDKEMKDHVSRTLFDPVA
diterpene products on expression in EHY18 [3]: no diterpene alcohol or hydrocarbon formation
diterpene product on bacterial expression [4]: failed to produce detectable levels of any diterpene; also recorded: complete loss of enzymatic activity
diterpene product on yeast expression [5]: failed to produce observable levels of any diterpene product; also recorded: failed to produce detectable levels of biosynthetic product
